Test results published in PubChem BioAssay (NCI).
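In this assay, cells in 96-well plates receive the compound at five concentrations for 48 hours. Endpoints are linearly interpolated between the surrounding concentrations. At the TGI there is no net growth.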

How the values were obtained:
Assay in all cases: NCI-60 cell line screen, 48 h
[1] = test system: 786-0 renal
[2] = test system: A498 renal
[3] = test system: A549 NSCLC
[4] = test system: ACHN renal
[5] = test system: CAKI-1 renal
[6] = test system: CCRF-CEM leukemia
[7] = test system: COLO 205 colon
[8] = test system: DU-145 prostate
[9] = test system: EKVX NSCLC
[10] = test system: HCC-2998 colon
[11] = test system: HCT-116 colon
[12] = test system: HCT-15 colon
[13] = test system: HL-60(TB) leukemia
[14] = test system: HOP-62 NSCLC
[15] = test system: HS 578T breast
[16] = test system: HT29 colon
[17] = test system: IGROV1 ovarian
[18] = test system: KM12 colon
[19] = test system: LOX IMVI melanoma
[20] = test system: M14 melanoma
[21] = test system: MALME-3M melanoma
[22] = test system: MCF7 breast
[23] = test system: MDA-MB-231 breast
[24] = test system: MDA-MB-435
[25] = test system: MDA-N
[26] = test system: MOLT-4 leukemia
[27] = test system: NCI-H226 lung
[28] = test system: NCI-H23 lung
[29] = test system: NCI-H460 lung
[30] = test system: NCI/ADR-RES ovarian
[31] = test system: OVCAR-3 ovarian
[32] = test system: OVCAR-4 ovarian
[33] = test system: OVCAR-5 ovarian
[34] = test system: OVCAR-8 ovarian
[35] = test system: PC-3 prostate
[36] = test system: RXF 393 renal
[37] = test system: SF-268 CNS
[38] = test system: SF-295 CNS
[39] = test system: SF-539 CNS
[40] = test system: SK-MEL-2 melanoma
[41] = test system: SK-MEL-28 melanoma
[42] = test system: SK-MEL-5 melanoma
[43] = test system: SK-OV-3 ovarian
[44] = test system: SN12C renal
[45] = test system: SNB-19 CNS
[46] = test system: SR leukemia
[47] = test system: SW-620 colon
[48] = test system: T-47D breast
[49] = test system: TK-10 renal
[50] = test system: UACC-257 melanoma
[51] = test system: UACC-62 melanoma
[52] = test system: BT-549 breast
[53] = test system: HOP-92 NSCLC
[54] = test system: K-562 leukemia
[55] = test system: NCI-H522 lung
[56] = test system: RPMI-8226 leukemia
[57] = test system: SNB-75 CNS
[58] = test system: UO-31 renal
[59] = test system: U251 CNS

Question: What does the source list for `O=C1NC(=O)[C@@H](OCC2CCCCC2)[C@@H]2OCC3OC(C(O)C3O)C12` (stereo partly specified)?
Answer: TGI [1]: > 100 µM; TGI [2]: > 100 µM; TGI [3]: > 100 µM; TGI [4]: > 100 µM; TGI [5]: > 100 µM; TGI [6]: > 100 µM; TGI [7]: > 100 µM; TGI [8]: > 100 µM; TGI [9]: > 100 µM; TGI [10]: > 100 µM; TGI [11]: > 100 µM; TGI [12]: > 100 µM; TGI [13]: > 100 µM; TGI [14]: > 100 µM; TGI [15]: > 100 µM; TGI [16]: > 100 µM; TGI [17]: > 100 µM; TGI [18]: > 100 µM; TGI [19]: > 100 µM; TGI [20]: > 100 µM; TGI [21]: > 100 µM; TGI [22]: > 100 µM; TGI [23]: > 100 µM; TGI [24]: > 100 µM; TGI [25]: > 100 µM; TGI [26]: > 100 µM; TGI [27]: > 100 µM; TGI [28]: > 100 µM; TGI [29]: > 100 µM; TGI [30]: > 100 µM; TGI [31]: > 100 µM; TGI [32]: > 100 µM; TGI [33]: > 100 µM; TGI [34]: > 100 µM; TGI [35]: > 100 µM; TGI [36]: > 100 µM; TGI [37]: > 100 µM; TGI [38]: > 100 µM; TGI [39]: > 100 µM; TGI [40]: > 100 µM; TGI [41]: > 100 µM; TGI [42]: > 100 µM; TGI [43]: > 100 µM; TGI [44]: > 100 µM; TGI [45]: > 100 µM; TGI [46]: > 100 µM; TGI [47]: > 100 µM; TGI [48]: > 100 µM; TGI [49]: > 100 µM; TGI [50]: > 100 µM; TGI [51]: > 100 µM

Question: For `O=C1CCc2nc3ncccc3cc2C1`, which TGI [1] is on record?
Answer: > 100 µM

Question: What about the TGI [2] of the same compound?
Answer: > 100 µM

Question: And the TGI [3]?
Answer: > 100 µM

Question: What about the TGI [4] of the same compound?
Answer: > 100 µM

Question: What about the TGI [52] of the same compound?
Answer: > 100 µM

Question: What about the TGI [5] of the same compound?
Answer: > 100 µM

Question: What about the TGI [6] of the same compound?
Answer: 72.8 µM

Question: And the TGI [7]?
Answer: > 100 µM

Question: And the TGI [9]?
Answer: > 100 µM

Question: What about the TGI [10] of the same compound?
Answer: > 100 µM

Question: What about the TGI [11] of the same compound?
Answer: > 100 µM

Question: And the TGI [12]?
Answer: > 100 µM

Question: What about the TGI [14] of the same compound?
Answer: > 100 µM

Question: What about the TGI [53] of the same compound?
Answer: > 100 µM

Question: And the TGI [17]?
Answer: > 100 µM

Question: What about the TGI [54] of the same compound?
Answer: 97.7 µM

Question: What about the TGI [20] of the same compound?
Answer: > 100 µM

Question: What about the TGI [21] of the same compound?
Answer: > 100 µM

Question: And the TGI [23]?
Answer: > 100 µM

Question: And the TGI [24]?
Answer: 82.3 µM

Question: What about the TGI [25] of the same compound?
Answer: > 100 µM

Question: What about the TGI [26] of the same compound?
Answer: > 100 µM

Question: What about the TGI [27] of the same compound?
Answer: > 100 µM

Question: What about the TGI [28] of the same compound?
Answer: > 100 µM

Question: What about the TGI [29] of the same compound?
Answer: > 100 µM

Question: What about the TGI [55] of the same compound?
Answer: 55.4 µM

Question: What about the TGI [30] of the same compound?
Answer: > 100 µM

Question: What about the TGI [31] of the same compound?
Answer: > 100 µM

Question: And the TGI [32]?
Answer: > 100 µM

Question: And the TGI [33]?
Answer: > 100 µM

Question: What about the TGI [35] of the same compound?
Answer: > 100 µM

Question: What about the TGI [56] of the same compound?
Answer: > 100 µM

Question: And the TGI [36]?
Answer: > 100 µM

Question: And the TGI [37]?
Answer: > 100 µM

Question: What about the TGI [38] of the same compound?
Answer: > 100 µM

Question: What about the TGI [40] of the same compound?
Answer: > 100 µM

Question: What about the TGI [41] of the same compound?
Answer: > 100 µM

Question: And the TGI [42]?
Answer: > 100 µM

Question: What about the TGI [43] of the same compound?
Answer: > 100 µM

Question: What about the TGI [44] of the same compound?
Answer: > 100 µM

Question: What about the TGI [45] of the same compound?
Answer: > 100 µM

Question: What about the TGI [57] of the same compound?
Answer: > 100 µM

Question: What about the TGI [47] of the same compound?
Answer: > 100 µM

Question: What about the TGI [48] of the same compound?
Answer: > 100 µM

Question: What about the TGI [49] of the same compound?
Answer: > 100 µM

Question: What about the TGI [50] of the same compound?
Answer: > 100 µM

Question: What about the TGI [58] of the same compound?
Answer: > 100 µM

Question: `CC(C)(C)OC(=O)NNC(=O)C1Cc2ccccc2OC1=O` (stereo unspecified) was tested. Which TGI [1] did it give?
Answer: > 100 µM

Question: And the TGI [3]?
Answer: > 100 µM

Question: What about the TGI [4] of the same compound?
Answer: > 100 µM

Question: And the TGI [52]?
Answer: > 100 µM

Question: What about the TGI [5] of the same compound?
Answer: > 100 µM

Question: What about the TGI [8] of the same compound?
Answer: > 100 µM

Question: What about the TGI [9] of the same compound?
Answer: > 100 µM

Question: And the TGI [10]?
Answer: > 100 µM

Question: And the TGI [11]?
Answer: > 100 µM

Question: What about the TGI [12] of the same compound?
Answer: > 100 µM

Question: What about the TGI [14] of the same compound?
Answer: > 100 µM

Question: What about the TGI [15] of the same compound?
Answer: > 100 µM

Question: And the TGI [16]?
Answer: > 100 µM

Question: And the TGI [17]?
Answer: > 100 µM

Question: What about the TGI [54] of the same compound?
Answer: > 100 µM

Question: What about the TGI [18] of the same compound?
Answer: > 100 µM

Question: And the TGI [20]?
Answer: > 100 µM

Question: And the TGI [21]?
Answer: > 100 µM

Question: What about the TGI [24] of the same compound?
Answer: > 100 µM

Question: And the TGI [25]?
Answer: > 100 µM

Question: And the TGI [26]?
Answer: > 100 µM

Question: What about the TGI [27] of the same compound?
Answer: > 100 µM

Question: And the TGI [28]?
Answer: > 100 µM

Question: What about the TGI [29] of the same compound?
Answer: > 100 µM

Question: What about the TGI [55] of the same compound?
Answer: > 100 µM

Question: What about the TGI [30] of the same compound?
Answer: > 100 µM

Question: And the TGI [31]?
Answer: > 100 µM

Question: And the TGI [33]?
Answer: > 100 µM

Question: What about the TGI [34] of the same compound?
Answer: > 100 µM

Question: And the TGI [35]?
Answer: > 100 µM

Question: What about the TGI [56] of the same compound?
Answer: > 100 µM

Question: What about the TGI [36] of the same compound?
Answer: > 100 µM

Question: What about the TGI [37] of the same compound?
Answer: > 100 µM

Question: And the TGI [38]?
Answer: > 100 µM

Question: And the TGI [39]?
Answer: > 100 µM

Question: What about the TGI [40] of the same compound?
Answer: > 100 µM

Question: And the TGI [41]?
Answer: > 100 µM

Question: What about the TGI [42] of the same compound?
Answer: > 100 µM

Question: What about the TGI [43] of the same compound?
Answer: > 100 µM

Question: What about the TGI [44] of the same compound?
Answer: > 100 µM

Question: And the TGI [45]?
Answer: > 100 µM

Question: And the TGI [46]?
Answer: > 100 µM

Question: What about the TGI [47] of the same compound?
Answer: > 100 µM

Question: What about the TGI [49] of the same compound?
Answer: > 100 µM

Question: And the TGI [59]?
Answer: > 100 µM

Question: And the TGI [50]?
Answer: > 100 µM

Question: What about the TGI [51] of the same compound?
Answer: > 100 µM

Question: What about the TGI [58] of the same compound?
Answer: > 100 µM
